Measured values published in patent US20100029643A1 (ASTRAZENECA AB, priority 2006, published 2010).

Biological target: T1, Edg-1/S1P1 receptor (Homo sapiens, UniProt P21453)
T1 construct: expressed in transfected cells; host or cells: human osteogenic sarcoma U2OS cells: Edg-1 Transfluor U2OS WT Clone #37 (assay I), Edg-1 Transfluor U2OS Clone #3 (assay II)
Experiment: In vitro cell based receptor activation assay - Transfluor assay (assay I or II; beta-arrestin GFP relocalization after S1P stimulation)
Settings: at 3.50 μM (titrated from top concentration 10 μM)
Method in brief: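 U2OS cells overexpressing S1P1 with a beta-arrestin-GFP construct were pre-incubated with compound for 15 min at room temperature, then stimulated with S1P for 45 min at 37 °C. In assay I, final S1P was 375 nM or 750 nM and compound was a 9-point 3-fold series from 100 μM, in 1% DMSO. Cells were fixed and Hoechst-stained, GFP relocalization was imaged, and EC50 values were fitted.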

T1 sequence (P21453 whole entry): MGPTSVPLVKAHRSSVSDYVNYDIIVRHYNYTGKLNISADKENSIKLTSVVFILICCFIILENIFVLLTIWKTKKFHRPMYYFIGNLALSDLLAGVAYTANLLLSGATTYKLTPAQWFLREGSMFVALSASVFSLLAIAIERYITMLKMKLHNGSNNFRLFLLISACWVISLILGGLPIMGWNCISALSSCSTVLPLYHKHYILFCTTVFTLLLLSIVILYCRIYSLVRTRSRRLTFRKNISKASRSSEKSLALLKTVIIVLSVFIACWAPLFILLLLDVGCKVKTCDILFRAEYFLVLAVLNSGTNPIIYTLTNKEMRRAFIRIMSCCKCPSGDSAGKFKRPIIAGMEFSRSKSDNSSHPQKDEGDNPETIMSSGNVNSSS

Row | inhibition at 3.5 µM | Structure (SMILES)
1 | 56.5% | CCn1c(C(C)(C)NS(=O)(=O)c2ccc(F)cc2)nc2cnc(C3CC3)cc21 [Example 186, 4-Fluoro-N-[1-(6-cyclopropyl-1-ethyl-1H-imidazo[4,5-c]pyridin-2-yl)-1-methyl-ethyl]-benzenesulfonamide]
2 | 86.2% | CCn1c([C@@H](C)NS(=O)(=O)c2cccn2C)nc2ccc(C(F)(F)F)cc21 [Example 187, (R)—N-(1-(1-Ethyl-6-(trifluoromethyl)-1H-benzo[d]imidazol-2-yl)ethyl)-1-methyl-1H-pyrrole-2-sulfonamide]
